{"source": "patent US10968225B2", "about": "“Compounds and compositions for the treatment of cystic fibrosis” (Fondazione Istituto Italiano Di Tecnologia, priority 2017, dated 2021)", "molecular_target": "T1, mutant CFTR (Homo sapiens, UniProt P13569, DEL508-508)", "T1 construct": "expressed in transfected cells", "T1 sequence (P13569 with tags, fused parts or gaps DEL508-508)": "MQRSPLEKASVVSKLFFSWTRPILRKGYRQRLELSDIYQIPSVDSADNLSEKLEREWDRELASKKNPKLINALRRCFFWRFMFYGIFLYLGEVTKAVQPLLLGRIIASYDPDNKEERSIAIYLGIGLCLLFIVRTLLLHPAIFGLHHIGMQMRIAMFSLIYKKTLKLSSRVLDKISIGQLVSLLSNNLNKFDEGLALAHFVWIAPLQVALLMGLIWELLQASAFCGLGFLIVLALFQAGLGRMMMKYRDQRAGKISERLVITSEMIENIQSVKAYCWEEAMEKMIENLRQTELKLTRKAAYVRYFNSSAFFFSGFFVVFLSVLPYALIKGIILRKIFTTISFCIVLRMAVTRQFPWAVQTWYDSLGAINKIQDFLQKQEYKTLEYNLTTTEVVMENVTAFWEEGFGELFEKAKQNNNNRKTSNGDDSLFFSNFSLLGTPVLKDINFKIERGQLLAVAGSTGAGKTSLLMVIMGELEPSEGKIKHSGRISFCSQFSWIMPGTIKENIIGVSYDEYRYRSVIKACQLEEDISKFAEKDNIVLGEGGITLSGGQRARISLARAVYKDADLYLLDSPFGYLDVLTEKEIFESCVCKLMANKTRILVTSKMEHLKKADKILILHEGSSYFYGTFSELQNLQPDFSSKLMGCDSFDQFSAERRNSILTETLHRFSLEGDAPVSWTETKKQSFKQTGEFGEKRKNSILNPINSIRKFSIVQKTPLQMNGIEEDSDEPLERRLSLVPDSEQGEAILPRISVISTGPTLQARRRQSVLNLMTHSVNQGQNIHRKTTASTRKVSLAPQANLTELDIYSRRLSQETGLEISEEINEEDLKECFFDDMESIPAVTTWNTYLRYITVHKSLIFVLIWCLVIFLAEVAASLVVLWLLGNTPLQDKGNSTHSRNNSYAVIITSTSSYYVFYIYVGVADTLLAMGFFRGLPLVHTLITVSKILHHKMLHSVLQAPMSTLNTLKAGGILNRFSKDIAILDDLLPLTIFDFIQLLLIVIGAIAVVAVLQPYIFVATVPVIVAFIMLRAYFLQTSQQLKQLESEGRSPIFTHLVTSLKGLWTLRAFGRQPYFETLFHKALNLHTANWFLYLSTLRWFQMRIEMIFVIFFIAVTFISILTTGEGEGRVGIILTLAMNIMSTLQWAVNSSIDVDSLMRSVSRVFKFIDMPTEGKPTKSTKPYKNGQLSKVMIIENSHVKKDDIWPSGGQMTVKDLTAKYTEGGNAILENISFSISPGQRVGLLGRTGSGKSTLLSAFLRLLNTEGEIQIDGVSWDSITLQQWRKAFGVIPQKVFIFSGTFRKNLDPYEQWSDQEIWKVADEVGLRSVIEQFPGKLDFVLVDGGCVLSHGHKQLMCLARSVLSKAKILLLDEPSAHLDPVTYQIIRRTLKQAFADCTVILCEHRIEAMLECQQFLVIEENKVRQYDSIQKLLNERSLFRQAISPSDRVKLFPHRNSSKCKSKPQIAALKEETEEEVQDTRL", "assay": "Fluorescence (HS-YFP) assay for CFTR activity, corrector assay", "assay_type": "cell-based", "conditions": "CFBE41o- and FRT cells with stable expression of mutant CFTR, read-out: activity (EC50)", "data": [{"smiles": "CN(C(=O)c1cccc(-n2nc(C(F)(F)F)c3c2C(Oc2ccc(C(=O)O)cc2)COC3)c1)c1ccc2c(c1)OCC2", "note": "(single isomer, unassigned) [Compound 282, (R) or (S)-4-[[1-[3-[2,3-dihydrobenzofuran-6-yl(methyl)carbamoyl]phenyl]-3-(trifluoromethyl)-6,7-dihydro-4H-pyrano[4,3-c]pyrazol-7-yl]oxy]benzoic acid]", "values": [{"measurement": "EC50", "result": "< 1", "unit": "µM"}]}, {"smiles": "COC(=O)N1CCc2c(c(C(F)(F)F)nn2-c2cccc(C(=O)N(C)c3ccc4c(c3)OCO4)c2)C1", "note": "[Compound 009, Methyl 1-[3-[1,3-benzodioxol-5-yl(methyl)carbamoyl]phenyl]-3-(trifluoromethyl)-6,7-dihydro-4H-pyrazolo[4,3-c] pyridine-5-carboxylate]", "values": [{"measurement": "EC50", "result": "< 1", "unit": "µM"}]}, {"smiles": "CN(C(=O)c1cccc(-n2nc(C(F)F)c3c2C(Oc2ccc(C(=O)O)cc2)COC3)c1)c1ccc2c(c1)OC(F)(F)O2", "note": "(racemic) [Compound 263, 4-[[1-[3-[(2,2-difluoro-1,3-benzodioxol-5-yl)-methyl-carbamoyl]phenyl]-3-(difluoromethyl)-6,7-dihydro-4H-pyrano[4,3-c]pyrazol-7-yl]oxy]benzoic acid]", "values": [{"measurement": "EC50", "result": "< 1", "unit": "µM"}]}, {"smiles": "CN(C(=O)c1cccc(-n2nc(C(F)(F)F)c3c2C(Oc2ccc(C(=O)O)cc2)CCC3)c1)c1ccc2c(c1)OCC2", "note": "(single isomer, unassigned) [Compound 280, (R) or (S)-4-[[(1-[3-[2,3-dihydrobenzofuran-6-yl(methyl)carbamoyl]phenyl]-3-(trifluoromethyl)-4,5,6,7-tetrahydroindazol-7-yl]oxy]benzoic acid]", "values": [{"measurement": "EC50", "result": "< 1", "unit": "µM"}]}, {"smiles": "COc1cc(OC2CCCc3c(C(F)(F)F)nn(-c4cccc(C(=O)N(C)c5ccc6c(c5)OC(F)(F)O6)c4)c32)ccc1C(=O)O", "note": "(stereo not shown) [Compound 161, 4-[[1-[3-[(2,2-Difluoro-1,3-benzodioxol-5-yl)-methyl-carbamoyl]phenyl]-3-(trifluoromethyl)-4,5,6,7-tetrahydroindazol-7-yl]oxy]-2-methoxy-benzoic acid]", "values": [{"measurement": "EC50", "result": "< 1", "unit": "µM"}]}, {"smiles": "CN(C(=O)c1cccc(-n2nc(C(F)(F)F)c3c2CCN(C(=O)C(C)(C)c2ccccc2)C3)c1)c1ccc2c(c1)OCO2", "note": "[Compound 035, N-(1,3-Benzodioxol-5-yl)-N-methyl-3-[5-(2-methyl-2-phenyl-propanoyl)-3-(trifluoromethyl)-6,7-dihydro-4H-pyrazolo[4,3-c]pyridin-1-yl]benzamide]", "values": [{"measurement": "EC50", "result": "< 1", "unit": "µM"}]}, {"smiles": "CN1Cc2c(C(F)(F)F)nn(-c3cccc(C(=O)N(C)c4ccc5c(c4)OC(F)(F)O5)c3)c2C(Oc2ccc(C(=O)O)cc2)C1", "note": "(stereo not shown) [Compound 274, Ammonium 4-[[1-[3-[(2,2-difluoro-1,3-benzodioxol-5-yl)-methyl-carbamoyl]phenyl]-5-methyl-3-(trifluoromethyl)-6,7-dihydro-4H-pyrazolo[4,3-c]pyridin-7-yl]oxy]benzoate]", "values": [{"measurement": "EC50", "result": "< 1", "unit": "µM"}]}, {"smiles": "CN(C(=O)c1cccc(-n2nc(C(F)(F)F)c3c2CCN(C[C@H]2COC(C)(C)O2)C3)c1)c1ccc2c(c1)OCO2", "note": "[Compound 014, N-(1,3-Benzodioxol-5-yl)-3-[5-[[(4S)-2,2-dimethyl-1,3-dioxolan-4-yl]methyl]-3-(trifluoromethyl)-6,7-dihydro-4H-pyrazolo[4,3-c]pyridin-1-yl]-N-methyl-benzamide]", "values": [{"measurement": "EC50", "result": "< 1", "unit": "µM"}]}, {"smiles": "CN(C(=O)c1cccc(-n2nc(C(F)(F)F)c3c2CCN(C(=O)C(C)(C)C)C3)c1)c1ccc2nccnc2c1", "note": "[Compound 141, 3-[5-(2,2-Dimethylpropanoyl)-3-(trifluoromethyl)-6,7-dihydro-4H-pyrazolo[4,3-c]pyridin-1-yl]-N-methyl-N-quinoxalin-6-yl-benzamide]", "values": [{"measurement": "EC50", "result": "< 1", "unit": "µM"}]}, {"smiles": "CN(C(=O)c1cccc(-n2nc(C(F)(F)F)c3c2CCN(C(=O)OC(C)(C)C)C3)c1)c1ccc2c(c1)OCO2", "note": "[Compound 001, Tert-butyl 1-[3-[1,3-benzodioxol-5-yl(methyl)carbamoyl]phenyl]-3-(trifluoromethyl)-6,7-dihydro-4H-pyrazolo[4,3-c]pyridine-5-carboxylate]", "values": [{"measurement": "EC50", "result": "< 1", "unit": "µM"}]}, {"smiles": "CC(C)Oc1cncc(N(C)C(=O)c2cccc(-n3nc(C(F)(F)F)c4c3C(Oc3ccc(C(=O)O)cc3)CCC4)c2)c1", "note": "(racemic) [Compound 312, 4-[[1-[3-[(5-Isopropoxy-3-pyridyl)-methyl-carbamoyl]phenyl]-3-(trifluoromethyl)-4,5,6,7-tetrahydroindazol-7-yl]oxy]benzoic acid]", "values": [{"measurement": "EC50", "result": "1 to 2", "unit": "µM"}]}, {"smiles": "CN(C(=O)c1cccc(-n2nc(C(F)(F)F)c3c2C[C@H]2CC[C@@H]3N2)c1)c1ccc2c(c1)OCO2", "note": "(single isomer, unassigned) [Compound 048, (4R,7S)- or (4S,7R)—N-(Benzo[d][1,3]dioxol-5-yl)-N-methyl-3-(3-(trifluoromethyl)-5,6,7,8-tetrahydro-4,7-epiminocyclohepta [c]pyrazol-1(4H)-yl)benzamide]", "values": [{"measurement": "EC50", "result": "< 1", "unit": "µM"}]}, {"smiles": "CN(C(=O)c1cccc(-n2nc(C(F)(F)F)c3c2C(Oc2ccc(C(=O)O)c(F)c2)CCC3)c1)c1ccc2c(c1)OC(F)(F)O2", "note": "(stereo not shown) [Compound 147, 2-Fluoro-4-[[1-[3-[(2,2-difluoro-1,3-benzodioxol-5-yl)-methyl-carbamoyl]phenyl]-3-(trifluoromethyl)-4,5,6,7-tetrahydroindazol-7-yl]oxy]benzoic acid]", "values": [{"measurement": "EC50", "result": "< 1", "unit": "µM"}]}, {"smiles": "CN(C(=O)c1cccc(-n2nc(C(F)(F)F)c3c2CN(S(=O)(=O)c2ccc(C(=O)O)cc2)CC3)c1)c1ccc2c(c1)OCO2", "note": "[Compound 077, 4-[[1-[3-[1,3-Benzodioxol-5-yl(methyl)carbamoyl]phenyl]-3-(trifluoromethyl)-5,7-dihydro-4H-pyrazolo[3,4-c]pyridin-6-yl]sulfonyl]benzoic acid]", "values": [{"measurement": "EC50", "result": "1 to 2", "unit": "µM"}]}, {"smiles": "Cc1nc2ccc(N(C)C(=O)c3cccc(-n4nc(C(F)(F)F)c5c4CCN(C)C5)c3)cc2o1", "note": "[Compound 040, N-Methyl-N-(2-methyl-1,3-benzoxazol-6-yl)-3-[5-methyl-3-(trifluoromethyl)-6,7-dihydro-4H-pyrazolo[4,3-c]pyridin-1-yl]benzamide]", "values": [{"measurement": "EC50", "result": "< 1", "unit": "µM"}]}, {"smiles": "Cc1nc2cc(F)c(N(C)C(=O)c3cccc(-n4nc(C(F)(F)F)c5c4CCN(C)C5)c3)cc2o1", "note": "[Compound 046, N-(5-Fluoro-2-methyl-1,3-benzoxazol-6-yl)-N-methyl-3-[5-methyl-3-(trifluoromethyl)-6,7-dihydro-4H-pyrazolo[4,3-c]pyridin-1-yl]benzamide]", "values": [{"measurement": "EC50", "result": "< 1", "unit": "µM"}]}, {"smiles": "CN(C(=O)c1cccc(-n2nc(C(F)(F)F)c3c2C(Oc2ncc(C(=O)O)cn2)COC3)c1)c1ccc2c(c1)OC(F)(F)O2", "note": "(racemic) [Compound 295, 2-[[1-[3-[(2,2-Difluoro-1,3-benzodioxol-5-yl)-methyl-carbamoyl]phenyl]-3-(trifluoromethyl)-6,7-dihydro-4H-pyrano[4,3-c]pyrazol-7-yl]oxy]pyrimidine-5-carboxylic acid]", "values": [{"measurement": "EC50", "result": "1 to 2", "unit": "µM"}]}, {"smiles": "CN(C(=O)c1cccc(-n2nc(C(F)(F)F)c3c2C(Oc2ncc(C(=O)O)cn2)COC3)c1)c1ccc2c(c1)OCC2", "note": "(racemic) [Compound 296, 2-[[1-[3-[2,3-Dihydrobenzofuran-6-yl(methyl)carbamoyl]phenyl]-3-(trifluoromethyl)-6,7-dihydro-4H-pyrano[4,3-c]pyrazol-7-yl]oxy]pyrimidine-5-carboxylic acid]", "values": [{"measurement": "EC50", "result": "< 1", "unit": "µM"}]}, {"smiles": "Cc1nc2ncc(N(C)C(=O)c3cccc(-n4nc(C(F)(F)F)c5c4C(Oc4ccc(C(=O)O)cc4)CCC5)c3)cc2o1", "note": "(single isomer, unassigned) [Compound 287, (S) or (R)-4-[[1-[3-[Methyl-(2-methyloxazolo[4,5-b]pyridin-6-yl)carbamoyl]phenyl]-3-(trifluoromethyl)-4,5,6,7-tetrahydroindazol-7-yl]oxy]benzoic acid]", "values": [{"measurement": "EC50", "result": "< 1", "unit": "µM"}]}, {"smiles": "CN(C(=O)c1cccc(-n2nc(C(F)(F)F)c3c2C[C@H]2CC[C@@H]3N2C(=O)OC(C)(C)C)c1)c1ccc2c(c1)OCO2", "note": "(single isomer, unassigned) [Compound 052, (4R,7S)- or (4S,7R)-tert-Butyl-1-(3-(benzo[d][1,3]dioxol-5-yl(methyl)carbamoyl)phenyl)-3-(trifluoromethyl)-1,4,5,6,7,8-hexahydro-4,7-epiminocyclohepta[c]pyrazole-9-carboxylate]", "values": [{"measurement": "EC50", "result": "< 1", "unit": "µM"}]}, {"smiles": "COc1cc(NC(=O)c2cccc(-n3nc(C(F)(F)F)c4c3CCN(C(=O)C(C)(C)C)C4)c2)ccn1", "note": "[Compound 083, 3-[5-(2,2-Dimethylpropanoyl)-3-(trifluoromethyl)-6,7-dihydro-4Hpyrazolo[4,3-c]pyridin-1-yl]-N-(2-methoxy-4-pyridyl)benzamide]", "values": [{"measurement": "EC50", "result": "> 2", "unit": "µM"}]}, {"smiles": "COc1cc(N(C)C(=O)c2cccc(-n3nc(C(F)(F)F)c4c3C(Oc3ccc(C(=O)O)cc3)CCC4)c2)ccc1F", "note": "(racemic) [Compound 308, 4-[[1-[3-[(4-Fluoro-3-methoxy-phenyl)-methyl-carbamoyl]phenyl]-3-(trifluoromethyl)-4,5,6,7-tetrahydroindazol-7-yl]oxy]benzoic acid]", "values": [{"measurement": "EC50", "result": "> 2", "unit": "µM"}]}, {"smiles": "COC(=O)c1ccc(S(=O)(=O)N2C3CCC2c2c(C(F)(F)F)nn(-c4cccc(C(=O)N(C)c5ccc6c(c5)OCO6)c4)c2C3)cc1", "note": "(stereo not shown) [Compound 070, Methyl 4-((1-(3-(benzo[d][1,3]dioxol-5-yl(methyl)carbamoyl)phenyl)-3-(trifluoromethyl)-1,4,5,6,7,8-hexahydro-4,7-epiminocyclohepta[c]pyrazol-9-yl)sulfonyl)benzoate]", "values": [{"measurement": "EC50", "result": "< 1", "unit": "µM"}]}, {"smiles": "CN(C(=O)c1cccc(-n2nc(C(F)(F)F)c3c2C[C@@H]2CC[C@H]3N2C(=O)OC(C)(C)C)c1)c1ccc2c(c1)OCO2", "note": "(single isomer, unassigned) [Compound 053, (4S,7R)- or (4R,7S)-tert-Butyl-1-(3-(benzo[d][1,3]dioxol-5-yl(methyl)carbamoyl)phenyl)-3-(trifluoromethyl)-1,4,5,6,7,8-hexahydro-4,7-epiminocyclohepta[c]pyrazole-9-carboxylate]", "values": [{"measurement": "EC50", "result": "< 1", "unit": "µM"}]}, {"smiles": "CN(C(=O)c1cccc(-n2nc(C(F)(F)F)c3c2CCN(S(=O)(=O)c2cccc(C(=O)O)c2)C3)c1)c1ccc2c(c1)OCO2", "note": "[Compound 061, 3-[[1-[3-[1,3-Benzodioxol-5-yl(methyl)carbamoyl]phenyl]-3-(trifluoromethyl)-6,7-dihydro-4H-pyrazolo[4,3-c]pyridin-5-yl]sulfonyl]benzoic acid]", "values": [{"measurement": "EC50", "result": "> 2", "unit": "µM"}]}]}
